Measurements as given in patent US11208400B2, “Substituted 6-(1H-pyrazol-1-yl)pyrimidin-4-amine derivatives and uses thereof” (Bayer Aktiengesellschaft, priority 2016, dated 2021).

The compounds below were run against T1, human Npt2a (Homo sapiens, UniProt Q06495) (assay: Npt2a activity cell based assay, membrane potential dye, CHO T-REx hNpt2a cells). Details: doxycycline-induced, depolarization by sodium phosphate influx, average or median values if tested more than once.
T1 construct: expressed in transfected cells
T1 sequence (Q06495 1-639): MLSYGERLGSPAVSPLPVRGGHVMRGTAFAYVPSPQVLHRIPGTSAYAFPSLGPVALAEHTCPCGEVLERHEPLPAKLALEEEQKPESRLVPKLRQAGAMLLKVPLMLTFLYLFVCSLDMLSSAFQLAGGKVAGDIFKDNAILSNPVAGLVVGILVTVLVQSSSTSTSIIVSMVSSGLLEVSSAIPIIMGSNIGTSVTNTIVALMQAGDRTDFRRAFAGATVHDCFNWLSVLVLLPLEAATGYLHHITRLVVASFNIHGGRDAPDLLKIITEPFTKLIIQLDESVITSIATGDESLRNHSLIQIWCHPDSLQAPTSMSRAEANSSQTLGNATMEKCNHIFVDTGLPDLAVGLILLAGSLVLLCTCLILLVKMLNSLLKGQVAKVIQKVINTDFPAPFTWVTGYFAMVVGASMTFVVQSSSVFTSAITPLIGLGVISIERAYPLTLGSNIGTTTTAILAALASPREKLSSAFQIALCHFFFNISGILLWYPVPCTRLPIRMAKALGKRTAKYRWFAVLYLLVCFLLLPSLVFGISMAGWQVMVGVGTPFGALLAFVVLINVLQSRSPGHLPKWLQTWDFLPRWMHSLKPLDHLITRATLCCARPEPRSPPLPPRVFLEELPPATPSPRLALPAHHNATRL
Procedure, shortened: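 Doxycycline-induced (0.5 μg/mL, 24 h) CHO T-REx cells were loaded with membrane potential dye in sodium-free NHE buffer (pH 7.4) and exposed to compound (50 μM–1 nM, 5 min, room temperature).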
Work on `Cc1cc(C)n(-c2cc(Nc3c(Cl)c(-c4ccccc4)nn3C)ncn2)n1` [Example 457, N-(4-chloro-1-methyl-3-phenyl-1H-pyrazol-5-yl)-6-(3,5-dimethyl-1H-pyrazol-1-yl)pyrimidin-4-amine] yielded an IC50 of 130 nM.
Work on `COC(C)c1c(C)nn(-c2cc(Nc3c(C)c(-c4ccc(F)cc4)nn3CC3CC3)ncn2)c1C` (single isomer, unassigned) [Example 327, N-[1-(cyclopropylmethyl)-3-(4-fluorophenyl)-4-methyl-1H-pyrazol-5-yl]-6-{4-[1-methoxyethyl]-3,5-dimethyl-1H-pyrazol-1-yl}pyrimidin-4-amine] yielded an IC50 of 4 nM.
`Cc1cc(C)n(-c2cc(Nc3c(C)c(-c4ccc(C(F)(F)F)nc4)nn3CC3CC3)ncn2)n1` [Example 533, N-{1-(cyclopropylmethyl)-4-methyl-3-[6-(trifluoromethyl)pyridin-3-yl]-1H-pyrazol-5-yl}-6-(3,5-dimethyl-1H-pyrazol-1-yl)pyrimidin-4-amine] was tested, and the IC50 was 2000 nM.
`Cc1nn(-c2cc(Nc3c(Cl)c(-c4ccc(F)cc4)nn3C)ncn2)c(C(C)(C)O)c1Cl` [Example 278, 2-[4-chloro-1-(6-{[4-chloro-3-(4-fluorophenyl)-1-methyl-1H-pyrazol-5-yl]amino}pyrimidin-4-yl)-3-methyl-1H-pyrazol-5-yl]propan-2-ol] gave an IC50 of 86 nM.
In the case of `Cc1cc(C)n(-c2cc(Nc3nn(C)c(-c4ccc(F)cc4F)c3Cl)ncn2)n1` [Example 55, N-[4-chloro-5-(2,4-difluorophenyl)-1-methyl-1H-pyrazol-3-yl]-6-(3,5-dimethyl-1H-pyrazol-1-yl)pyrimidin-4-amine], the IC50 is reported as 133 nM.
`Cc1cc(C)n(-c2cc(Nc3c(C)c(-c4ccc(Cl)cc4)nn3C)ncn2)n1` [Example 354, N-[3-(4-chlorophenyl)-1,4-dimethyl-1H-pyrazol-5-yl]-6-(3,5-dimethyl-1H-pyrazol-1-yl)pyrimidin-4-amine] was tested, and the IC50 was 135 nM.
`Cc1nn(-c2cc(Nc3nn(C)c(-c4ccc(F)cc4)c3C)ncn2)c(C)c1C(O)CC(C)C` (stereo not shown) [Example 456, 1-[1-(6-{[5-(4-fluorophenyl)-1,4-dimethyl-1H-pyrazol-3-yl]amino}pyrimidin-4-yl)-3,5-dimethyl-1H-pyrazol-4-yl]-3-methylbutan-1-ol] gave an IC50 of 41 nM.
